Laboratory results: US9937183B2, “Antimicrobial compounds and methods of making and using the same” (priority 2013, dated 2018)
Values after ≈ are worked out from the molar mass of the structure shown. Like-named read-outs stand apart in the source and are kept apart here.

What was measured:
Type in all cases: cell-based
P. aeruginosa 1705904 = test: MIC, microtiter-based liquid assay (CLSI); conditions: Pseudomonas aeruginosa, MDR strain
B. mallei = test: microbe, parasite or virus in culture; conditions: Burkholderia mallei; for MIC50: read-out: B. mallei MIC50; for MIC90: read-out: B. mallei MIC90; for MIC: read-out: B. mallei MIC Range
E. coli CAG12184 TolC = test: MIC, microtiter-based liquid assay (CLSI); conditions: Escherichia coli, CAG12184TOLC
[1] = tested on: E. faecium A6349 VanA + LNZ-R; test: MIC, microtiter-based liquid assay (CLSI); conditions: Enterococcus faecium
A. baumannii 1705936 = test: MIC, microtiter-based liquid assay (CLSI); conditions: Acinetobacter baumannii, MDR strain
A. baumannii 1705943 = test: MIC, microtiter-based liquid assay (CLSI); conditions: Acinetobacter baumannii
E. coli 1705878 = test: MIC, microtiter-based liquid assay (CLSI); conditions: Escherichia coli, MDR strain
S. aureus 11540 MRSA = test: MIC, microtiter-based liquid assay (CLSI); conditions: Staphylococcus aureus
[2] = tested on: S. pneumoniae 02J1175 Mef(A); test: MIC, microtiter-based liquid assay (CLSI); conditions: Streptococcus pneumoniae
K. pneumoniae 1705966 = test: MIC, microtiter-based liquid assay (CLSI); conditions: Klebsiella pneumoniae
B. anthracis = test: microbe, parasite or virus in culture; conditions: Bacillus anthracis; for MIC50: read-out: B. anthracis MIC50; for MIC90: read-out: B. anthracis MIC90; for MIC: read-out: B. anthracis MIC Range
P. aeruginosa 1705886 = test: MIC, microtiter-based liquid assay (CLSI); conditions: Pseudomonas aeruginosa
Y. pestis = test: microbe, parasite or virus in culture; conditions: Yersinia pestis; for MIC50: read-out: Y. pestis MIC50; for MIC90: read-out: Y. pestis MIC90; for MIC: read-out: Y. pestis MIC Range
B. pseudomallei = test: microbe, parasite or virus in culture; conditions: Burkholderia pseudomallei; for MIC50: read-out: B. pseudomallei MIC50; for MIC90: read-out: B. pseudomallei MIC90; for MIC: read-out: B. pseudomallei MIC Range
F. tularensis = test: microbe, parasite or virus in culture; conditions: Francisella tularensis; for MIC50: read-out: F. tularensis MIC50; for MIC90: read-out: F. tularensis MIC90; for MIC: read-out: F. tularensis MIC Range
E. coli MG1655 parent = test: MIC, microtiter-based liquid assay (CLSI); conditions: Escherichia coli
P. aeruginosa ATCC27853 = test: MIC, microtiter-based liquid assay (CLSI); conditions: Pseudomonas aeruginosa
E. coli ATCC25922 = test: MIC, microtiter-based liquid assay (CLSI); conditions: Escherichia coli
K. pneumoniae 1705949 = test: MIC, microtiter-based liquid assay (CLSI); conditions: Klebsiella pneumoniae, MDR strain
[3] = ATCC25922, read-out: MIC E. coli ATCC25922 + 50% HS
[4] = ATCC25922, read-out: MIC E. coli ATCC25922

| Compound | MIC (P. aeruginosa 1705904) | MIC50 (B. mallei) | MIC90 (B. mallei) | MIC (B. mallei) | MIC (E. coli CAG12184 TolC) | MIC [1] | MIC (A. baumannii 1705936) | MIC (A. baumannii 1705943) | MIC (E. coli 1705878) | MIC (S. aureus 11540 MRSA) | MIC [2] | MIC (K. pneumoniae 1705966) | MIC50 (B. anthracis) | MIC90 (B. anthracis) | MIC (P. aeruginosa 1705886) | MIC (E. coli MG1655 parent) | MIC (P. aeruginosa ATCC27853) | MIC (E. coli ATCC25922; [3]) | MIC (E. coli ATCC25922; [4]) | MIC (K. pneumoniae 1705949) | also measured |
| --- | --- | --- | --- | --- | --- | --- | --- | --- | --- | --- | --- | --- | --- | --- | --- | --- | --- | --- | --- | --- | --- |
| C=C[C@@H](NCCCNC(=N)N)c1ccc(-n2cc3cc(-c4cc(CCC[C@H](C)N)cc(Cl)c4F)[nH]c3nc2=O)cc1 [Compound 11] | 8 µg/mL (≈ 13.8 µM) | ≤ 0.03 µg/mL | 0.12 µg/mL (≈ 0.207 µM) | 0.03 to 0.25 µg/mL (≈ 0.0518 to 0.432 µM) | 0.25 µg/mL (≈ 0.432 µM) | 4 µg/mL | 1 µg/mL (≈ 1.73 µM) | 0.25 µg/mL (≈ 0.432 µM) | 0.5 µg/mL (≈ 0.863 µM) | 0.5 µg/mL (≈ 0.863 µM) | 2 µg/mL (≈ 3.45 µM) | 1 µg/mL (≈ 1.73 µM) | 0.25 µg/mL (≈ 0.432 µM) | 0.5 µg/mL (≈ 0.863 µM) | 4 µg/mL (≈ 6.91 µM) | 0.25 µg/mL (≈ 0.432 µM) | 4 µg/mL (≈ 6.91 µM) | 0.5 µg/mL | 0.25 µg/mL (≈ 0.432 µM) | 8 µg/mL (≈ 13.8 µM) | MIC (B. anthracis): 0.12 to 0.5 µg/mL (≈ 0.207 to 0.863 µM); MIC50 (Y. pestis): ≤ 0.03 µg/mL; MIC90 (Y. pestis): 0.12 µg/mL (≈ 0.207 µM); MIC (Y. pestis): 0.03 to 0.5 µg/mL (≈ 0.0518 to 0.863 µM); MIC50 (B. pseudomallei): 1 µg/mL (≈ 1.73 µM); MIC90 (B. pseudomallei): 4 µg/mL (≈ 6.91 µM); MIC (B. pseudomallei): 0.25 to 8 µg/mL (≈ 0.432 to 13.8 µM); MIC50 (F. tularensis): 0.06 µg/mL (≈ 0.104 µM); MIC90 (F. tularensis): 0.25 µg/mL (≈ 0.432 µM); MIC (F. tularensis): 0.03 to 4 µg/mL (≈ 0.0518 to 6.91 µM) |
| NC[C@H]1O[C@H](O[C@H]2[C@H](O)[C@@H](O[C@H]3O[C@H](CO)[C@@H](O)[C@H](N)[C@H]3O)[C@H](N)C[C@@H]2N)[C@H](N)C[C@@H]1O [Tobramycin, reference compound] | 128 µg/mL (≈ 274 µM) | – | – | – | 1 µg/mL (≈ 2.14 µM) | > 128 µg/mL | 8 µg/mL (≈ 17.1 µM) | ≤ 0.25 µg/mL | 64 µg/mL (≈ 137 µM) | 0.5 µg/mL (≈ 1.07 µM) | 16 µg/mL (≈ 34.2 µM) | ≤ 0.25 µg/mL | – | – | 0.5 µg/mL (≈ 1.07 µM) | 1 µg/mL (≈ 2.14 µM) | 0.5 µg/mL (≈ 1.07 µM) | 1 µg/mL | 1 µg/mL (≈ 2.14 µM) | > 128 µg/mL | – |
| C[C@H](N)CCCc1cc(-c2cc3cn(-c4ccc([C@H](C)NCCCNC(=N)N)cc4)c(=O)nc3[nH]2)c(F)c(Cl)c1F [Compound 12] | 4 µg/mL (≈ 6.84 µM) | ≤ 0.03 µg/mL | 0.12 µg/mL (≈ 0.205 µM) | 0.03 to 0.25 µg/mL (≈ 0.0513 to 0.427 µM) | 0.125 µg/mL (≈ 0.214 µM) | 0.5 µg/mL | 2 µg/mL (≈ 3.42 µM) | 0.25 µg/mL (≈ 0.427 µM) | 0.25 µg/mL (≈ 0.427 µM) | 0.125 µg/mL (≈ 0.214 µM) | 0.125 µg/mL (≈ 0.214 µM) | 0.125 µg/mL (≈ 0.214 µM) | 0.06 µg/mL (≈ 0.103 µM) | 0.12 µg/mL (≈ 0.205 µM) | 2 µg/mL (≈ 3.42 µM) | 0.25 µg/mL (≈ 0.427 µM) | 4 µg/mL (≈ 6.84 µM) | 0.5 µg/mL | 0.125 µg/mL (≈ 0.214 µM) | 0.25 µg/mL (≈ 0.427 µM) | MIC (B. anthracis): 0.03 to 0.25 µg/mL (≈ 0.0513 to 0.427 µM); MIC50 (Y. pestis): 0.12 µg/mL (≈ 0.205 µM); MIC90 (Y. pestis): 0.25 µg/mL (≈ 0.427 µM); MIC (Y. pestis): 0.03 to 0.5 µg/mL (≈ 0.0513 to 0.855 µM); MIC50 (B. pseudomallei): 4 µg/mL (≈ 6.84 µM); MIC90 (B. pseudomallei): 8 µg/mL (≈ 13.7 µM); MIC (B. pseudomallei): 0.5 to 16 µg/mL (≈ 0.855 to 27.3 µM); MIC50 (F. tularensis): ≤ 0.03 µg/mL; MIC90 (F. tularensis): ≤ 0.03 µg/mL; MIC (F. tularensis): 0.03 to 1 µg/mL (≈ 0.0513 to 1.71 µM) |
| CC[C@H]1OC(=O)[C@H](C)[C@@H](O[C@H]2C[C@@](C)(OC)[C@@H](O)[C@H](C)O2)[C@H](C)[C@@H](O[C@@H]2O[C@H](C)C[C@H](N(C)C)[C@H]2O)[C@](C)(O)C[C@@H](C)CN(C)[C@H](C)[C@@H](O)[C@]1(C)O [Azithromycin, reference compound] | – | 0.5 µg/mL (≈ 0.668 µM) | 1 µg/mL (≈ 1.34 µM) | 0.12 to 1 µg/mL (≈ 0.16 to 1.34 µM) | – | – | – | – | – | – | – | – | – | – | – | – | – | – | – | – | – |
| C[C@H](NCCCNC(=N)N)c1ccc(-n2cc3cc(-c4cc(CCC5(CN)CC5)cc(Cl)c4F)[nH]c3nc2=O)cc1 [Compound 4] | 4 µg/mL (≈ 6.91 µM) | ≤ 0.03 µg/mL | 0.12 µg/mL (≈ 0.207 µM) | 0.03 to 0.5 µg/mL (≈ 0.0518 to 0.863 µM) | 0.25 µg/mL (≈ 0.432 µM) | 4 µg/mL | 4 µg/mL (≈ 6.91 µM) | 0.25 µg/mL (≈ 0.432 µM) | 0.5 µg/mL (≈ 0.863 µM) | 0.25 µg/mL (≈ 0.432 µM) | 0.5 µg/mL (≈ 0.863 µM) | 0.25 µg/mL (≈ 0.432 µM) | 0.5 µg/mL (≈ 0.863 µM) | 0.5 µg/mL (≈ 0.863 µM) | 2 µg/mL (≈ 3.45 µM) | 0.25 µg/mL (≈ 0.432 µM) | 4 µg/mL (≈ 6.91 µM) | 0.5 µg/mL | 0.125 µg/mL (≈ 0.216 µM) | 1 µg/mL (≈ 1.73 µM) | MIC (B. anthracis): 0.06 to 4 µg/mL (≈ 0.104 to 6.91 µM); MIC50 (Y. pestis): 0.25 µg/mL (≈ 0.432 µM); MIC90 (Y. pestis): 0.25 µg/mL (≈ 0.432 µM); MIC (Y. pestis): 0.03 to 0.5 µg/mL (≈ 0.0518 to 0.863 µM); MIC50 (B. pseudomallei): 2 µg/mL (≈ 3.45 µM); MIC90 (B. pseudomallei): 4 µg/mL (≈ 6.91 µM); MIC (B. pseudomallei): 0.5 to 8 µg/mL (≈ 0.863 to 13.8 µM); MIC50 (F. tularensis): ≤ 0.03 µg/mL; MIC90 (F. tularensis): ≤ 0.03 µg/mL; MIC (F. tularensis): 0.03 to 1 µg/mL (≈ 0.0518 to 1.73 µM) |
| CCc1cc(CCC[C@H](C)N)cc(-c2cc3cn(-c4ccc(CNCCCNC(=N)N)cc4)c(=O)nc3[nH]2)c1F [Compound 2] | 8 µg/mL (≈ 14.6 µM) | ≤ 0.03 µg/mL | 0.06 µg/mL (≈ 0.11 µM) | 0.03 to 0.25 µg/mL (≈ 0.0549 to 0.457 µM) | 0.125 µg/mL (≈ 0.229 µM) | 2 µg/mL | 4 µg/mL (≈ 7.32 µM) | 0.25 µg/mL (≈ 0.457 µM) | 1 µg/mL (≈ 1.83 µM) | 0.25 µg/mL (≈ 0.457 µM) | 0.125 µg/mL (≈ 0.229 µM) | 0.25 µg/mL (≈ 0.457 µM) | 0.12 µg/mL (≈ 0.22 µM) | 0.12 µg/mL (≈ 0.22 µM) | 2 µg/mL (≈ 3.66 µM) | 0.25 µg/mL (≈ 0.457 µM) | 4 µg/mL (≈ 7.32 µM) | 0.25 µg/mL | 0.125 µg/mL (≈ 0.229 µM) | 0.5 µg/mL (≈ 0.915 µM) | MIC (B. anthracis): 0.03 to 1 µg/mL (≈ 0.0549 to 1.83 µM); MIC50 (Y. pestis): 0.12 µg/mL (≈ 0.22 µM); MIC90 (Y. pestis): 0.25 µg/mL (≈ 0.457 µM); MIC (Y. pestis): 0.03 to 0.25 µg/mL (≈ 0.0549 to 0.457 µM); MIC50 (B. pseudomallei): 2 µg/mL (≈ 3.66 µM); MIC90 (B. pseudomallei): 4 µg/mL (≈ 7.32 µM); MIC (B. pseudomallei): 0.5 to 8 µg/mL (≈ 0.915 to 14.6 µM); MIC50 (F. tularensis): ≤ 0.03 µg/mL; MIC90 (F. tularensis): ≤ 0.03 µg/mL; MIC (F. tularensis): 0.03 to 0.25 µg/mL (≈ 0.0549 to 0.457 µM) |
